From patent publication US20240246942A1, “KINASE INHIBITORS FOR THE TREATMENT OF NEURODEGENERATIVE DISEASES” (priority 2020, published 2024)

What was measured:
Test in all cases: biochemical
[1] = target: T1, panel of 374 wild-type kinases (Homo sapiens, UniProt P05129); details: read-out: % Enzyme Activity (relative to DMSO controls), kinase PKCg
T1 construct: purchased Reaction Biology Corporation

[2] = target: T2, panel of 374 wild-type kinases (Homo sapiens, UniProt Q6P2M8); details: read-out: % Enzyme Activity (relative to DMSO controls), CAMK1b
T2 construct: purchased Reaction Biology Corporation
T2 sequence (Q6P2M8 whole entry): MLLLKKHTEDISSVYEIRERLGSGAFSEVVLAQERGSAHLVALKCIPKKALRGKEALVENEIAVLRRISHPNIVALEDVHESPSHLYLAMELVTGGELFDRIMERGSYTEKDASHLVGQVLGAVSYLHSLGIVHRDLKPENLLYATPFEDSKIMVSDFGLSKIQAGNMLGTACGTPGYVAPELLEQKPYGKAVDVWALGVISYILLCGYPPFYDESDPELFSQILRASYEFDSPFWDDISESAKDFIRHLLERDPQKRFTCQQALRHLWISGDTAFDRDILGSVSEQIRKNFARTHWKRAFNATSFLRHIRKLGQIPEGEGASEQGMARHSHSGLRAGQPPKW

[3] = target: T3, panel of 374 wild-type kinases (Homo sapiens, UniProt Q16816); details: read-out: % Enzyme Activity (relative to DMSO controls), kinase PHKg1
T3 construct: purchased Reaction Biology Corporation
T3 sequence (Q16816 whole entry): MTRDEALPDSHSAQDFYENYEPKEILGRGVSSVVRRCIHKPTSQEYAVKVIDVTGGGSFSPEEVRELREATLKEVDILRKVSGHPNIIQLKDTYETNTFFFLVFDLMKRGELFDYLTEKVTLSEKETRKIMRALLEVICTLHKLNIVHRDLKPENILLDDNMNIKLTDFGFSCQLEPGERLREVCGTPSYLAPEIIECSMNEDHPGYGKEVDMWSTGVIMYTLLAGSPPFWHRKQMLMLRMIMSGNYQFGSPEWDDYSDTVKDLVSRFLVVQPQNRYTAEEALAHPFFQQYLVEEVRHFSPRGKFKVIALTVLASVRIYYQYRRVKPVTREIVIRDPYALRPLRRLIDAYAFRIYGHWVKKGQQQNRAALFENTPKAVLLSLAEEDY

[4] = target: T4, panel of 374 wild-type kinases (Homo sapiens, UniProt Q13873); details: read-out: % Enzyme Activity (relative to DMSO controls), BMPR2
T4 construct: purchased Reaction Biology Corporation
T4 sequence (Q13873 27-1038): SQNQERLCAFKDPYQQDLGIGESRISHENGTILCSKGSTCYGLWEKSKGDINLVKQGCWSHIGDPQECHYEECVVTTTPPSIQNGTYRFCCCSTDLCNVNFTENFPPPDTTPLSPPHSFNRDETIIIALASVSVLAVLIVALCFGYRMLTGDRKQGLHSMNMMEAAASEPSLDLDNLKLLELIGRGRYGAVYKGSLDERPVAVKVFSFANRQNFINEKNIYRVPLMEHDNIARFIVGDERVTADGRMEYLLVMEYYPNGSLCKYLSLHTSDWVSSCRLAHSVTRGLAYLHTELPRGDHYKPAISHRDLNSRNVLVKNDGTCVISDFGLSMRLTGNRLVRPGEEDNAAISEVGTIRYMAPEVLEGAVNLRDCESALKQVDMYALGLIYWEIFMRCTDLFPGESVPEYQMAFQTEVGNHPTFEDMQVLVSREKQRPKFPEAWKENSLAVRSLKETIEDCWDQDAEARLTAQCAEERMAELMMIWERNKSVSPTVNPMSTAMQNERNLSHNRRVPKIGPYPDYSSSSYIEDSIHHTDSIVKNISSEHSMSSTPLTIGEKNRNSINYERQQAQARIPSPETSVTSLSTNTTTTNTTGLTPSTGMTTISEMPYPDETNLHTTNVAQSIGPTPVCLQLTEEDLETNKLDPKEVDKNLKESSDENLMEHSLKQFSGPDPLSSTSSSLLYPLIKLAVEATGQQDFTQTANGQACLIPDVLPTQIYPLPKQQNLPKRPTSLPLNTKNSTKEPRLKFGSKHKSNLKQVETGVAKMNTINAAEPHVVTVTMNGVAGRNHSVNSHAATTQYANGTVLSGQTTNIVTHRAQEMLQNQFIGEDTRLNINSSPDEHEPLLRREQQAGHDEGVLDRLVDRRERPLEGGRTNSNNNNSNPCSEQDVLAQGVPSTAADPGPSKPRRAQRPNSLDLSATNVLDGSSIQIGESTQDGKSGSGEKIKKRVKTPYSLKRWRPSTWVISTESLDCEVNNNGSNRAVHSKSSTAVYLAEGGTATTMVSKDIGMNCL

[5] = target: T5, panel of 374 wild-type kinases (Homo sapiens, UniProt P14616); details: read-out: % Enzyme Activity (relative to DMSO controls), IRR/INSRR
T5 construct: purchased Reaction Biology Corporation
T5 sequence (P14616 27-1297): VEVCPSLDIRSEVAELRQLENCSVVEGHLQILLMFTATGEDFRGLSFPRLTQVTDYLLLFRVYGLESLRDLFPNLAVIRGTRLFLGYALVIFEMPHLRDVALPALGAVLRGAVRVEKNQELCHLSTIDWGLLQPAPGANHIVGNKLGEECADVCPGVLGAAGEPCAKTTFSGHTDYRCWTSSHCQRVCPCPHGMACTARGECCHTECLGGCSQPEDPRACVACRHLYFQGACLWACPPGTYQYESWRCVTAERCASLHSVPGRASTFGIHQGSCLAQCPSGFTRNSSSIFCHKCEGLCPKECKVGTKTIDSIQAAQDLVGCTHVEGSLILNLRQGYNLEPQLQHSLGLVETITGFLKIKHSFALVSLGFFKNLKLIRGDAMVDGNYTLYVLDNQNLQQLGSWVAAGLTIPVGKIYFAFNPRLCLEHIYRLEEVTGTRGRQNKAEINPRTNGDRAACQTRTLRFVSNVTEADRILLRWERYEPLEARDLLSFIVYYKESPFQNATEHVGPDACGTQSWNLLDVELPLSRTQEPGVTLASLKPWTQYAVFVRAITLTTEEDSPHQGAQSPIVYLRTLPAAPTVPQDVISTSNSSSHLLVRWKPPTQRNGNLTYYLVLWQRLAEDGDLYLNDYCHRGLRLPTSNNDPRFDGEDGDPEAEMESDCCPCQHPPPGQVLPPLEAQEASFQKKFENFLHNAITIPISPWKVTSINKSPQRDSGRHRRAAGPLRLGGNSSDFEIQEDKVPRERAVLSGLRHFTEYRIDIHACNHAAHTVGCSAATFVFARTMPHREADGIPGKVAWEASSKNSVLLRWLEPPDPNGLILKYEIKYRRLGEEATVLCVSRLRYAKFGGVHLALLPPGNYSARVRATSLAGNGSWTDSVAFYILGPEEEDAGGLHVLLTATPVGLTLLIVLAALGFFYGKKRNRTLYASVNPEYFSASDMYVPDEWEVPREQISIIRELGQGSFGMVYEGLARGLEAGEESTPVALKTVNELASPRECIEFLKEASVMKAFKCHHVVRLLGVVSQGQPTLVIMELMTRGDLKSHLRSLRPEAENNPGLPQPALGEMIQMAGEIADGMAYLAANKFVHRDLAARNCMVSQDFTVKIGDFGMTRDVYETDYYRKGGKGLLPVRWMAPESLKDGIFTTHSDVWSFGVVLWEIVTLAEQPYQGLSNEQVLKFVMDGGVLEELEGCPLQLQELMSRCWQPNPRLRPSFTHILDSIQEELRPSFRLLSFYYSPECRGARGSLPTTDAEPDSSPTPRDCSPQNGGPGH

[6] = target: T6, panel of 374 wild-type kinases (Homo sapiens, UniProt P07332); details: read-out: % Enzyme Activity (relative to DMSO controls), FES/FPS
T6 construct: purchased Reaction Biology Corporation
T6 sequence (P07332 whole entry): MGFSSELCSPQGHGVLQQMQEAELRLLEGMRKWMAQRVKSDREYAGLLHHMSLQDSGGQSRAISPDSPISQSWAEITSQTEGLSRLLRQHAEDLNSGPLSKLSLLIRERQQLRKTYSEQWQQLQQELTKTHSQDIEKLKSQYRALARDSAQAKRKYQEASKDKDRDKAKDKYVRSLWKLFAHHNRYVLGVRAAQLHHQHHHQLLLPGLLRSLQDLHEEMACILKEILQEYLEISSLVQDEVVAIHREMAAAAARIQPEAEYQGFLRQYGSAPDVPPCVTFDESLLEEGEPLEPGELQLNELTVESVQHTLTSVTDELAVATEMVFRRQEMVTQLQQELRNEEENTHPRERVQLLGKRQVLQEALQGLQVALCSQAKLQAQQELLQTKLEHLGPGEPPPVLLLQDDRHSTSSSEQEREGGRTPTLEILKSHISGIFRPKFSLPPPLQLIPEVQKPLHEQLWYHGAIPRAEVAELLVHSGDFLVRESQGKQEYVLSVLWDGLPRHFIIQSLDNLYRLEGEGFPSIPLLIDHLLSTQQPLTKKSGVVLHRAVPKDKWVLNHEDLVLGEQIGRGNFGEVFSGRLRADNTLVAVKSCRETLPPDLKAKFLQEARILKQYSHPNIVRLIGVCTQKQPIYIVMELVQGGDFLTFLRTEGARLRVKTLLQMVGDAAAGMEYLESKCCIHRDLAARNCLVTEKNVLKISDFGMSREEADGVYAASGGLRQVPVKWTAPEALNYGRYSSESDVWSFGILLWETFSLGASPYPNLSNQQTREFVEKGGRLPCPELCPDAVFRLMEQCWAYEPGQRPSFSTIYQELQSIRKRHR

[7] = target: T7, panel of 374 wild-type kinases (Homo sapiens, UniProt P37173); details: read-out: % Enzyme Activity (relative to DMSO controls), kinase TGFBR2
T7 construct: purchased Reaction Biology Corporation
T7 sequence (P37173 23-567): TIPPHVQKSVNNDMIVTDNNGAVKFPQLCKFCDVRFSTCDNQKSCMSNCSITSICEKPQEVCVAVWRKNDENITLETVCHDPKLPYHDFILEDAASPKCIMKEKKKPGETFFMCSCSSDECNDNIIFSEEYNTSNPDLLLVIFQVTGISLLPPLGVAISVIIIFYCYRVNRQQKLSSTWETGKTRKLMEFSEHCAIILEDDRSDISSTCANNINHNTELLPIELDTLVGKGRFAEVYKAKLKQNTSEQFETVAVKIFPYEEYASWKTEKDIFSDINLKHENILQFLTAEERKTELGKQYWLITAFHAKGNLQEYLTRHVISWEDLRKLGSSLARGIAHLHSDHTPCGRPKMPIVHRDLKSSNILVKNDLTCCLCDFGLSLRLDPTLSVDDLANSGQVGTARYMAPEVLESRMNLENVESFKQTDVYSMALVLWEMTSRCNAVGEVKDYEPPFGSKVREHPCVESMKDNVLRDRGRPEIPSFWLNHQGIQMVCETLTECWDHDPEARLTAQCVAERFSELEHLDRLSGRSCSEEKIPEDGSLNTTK

[8] = target: T8, panel of 374 wild-type kinases (Homo sapiens, UniProt Q9UEE5); details: read-out: % Enzyme Activity (relative to DMSO controls), DRAK1/STK17A
T8 construct: purchased Reaction Biology Corporation
T8 sequence (Q9UEE5 1-414): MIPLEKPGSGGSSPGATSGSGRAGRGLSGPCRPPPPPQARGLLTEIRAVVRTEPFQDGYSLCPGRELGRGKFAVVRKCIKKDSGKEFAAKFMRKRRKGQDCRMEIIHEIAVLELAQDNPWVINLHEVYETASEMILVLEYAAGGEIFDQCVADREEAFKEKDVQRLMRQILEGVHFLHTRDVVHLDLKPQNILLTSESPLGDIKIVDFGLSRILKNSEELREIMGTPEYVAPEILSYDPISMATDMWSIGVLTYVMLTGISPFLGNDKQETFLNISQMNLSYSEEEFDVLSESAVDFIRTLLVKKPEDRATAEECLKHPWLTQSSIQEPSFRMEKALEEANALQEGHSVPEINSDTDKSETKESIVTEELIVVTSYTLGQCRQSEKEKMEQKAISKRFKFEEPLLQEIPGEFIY

Work on `Cc1sc(C(=O)NC2COC2)cc1-n1cc(NC(=O)Nc2c(F)cccc2Cl)cn1` [Compound 27, 4-(4-(3-(2-chloro-6-fluorophenyl)ureido)-1H-pyrazol-1-yl)-5-methyl-N-(oxetan-3-yl)thiophene-2-carboxamide] yielded a remaining activity at 10 µM ([1]; 10 uM) of 102%, a remaining activity at 10 µM ([2]; 10 uM) of 80.1% and a remaining activity at 10 µM ([3]; 10 uM) of 84%. For the same molecule, the remaining activity at 10 µM ([4]; 10 uM) was 84.5%, the remaining activity at 10 µM ([5]; 10 uM) was 71.9% and the remaining activity at 10 µM ([6]; 10 uM) was 93.7%. The remaining activity at 10 µM ([7]; 10 uM) was 86.8% and the remaining activity at 10 µM ([8]; 10 uM) was 111%.
For `O=C(Nc1cnn(-c2csc(C(=O)NC3COC3)c2)c1)Nc1c(F)cccc1Cl` [Compound 25, 4-(4-(3-(2-chloro-6-fluorophenyl)ureido)-1H-pyrazol-1-yl)-N-(oxetan-3-yl)thiophene-2-carboxamide], the remaining activity at 5 µM [1] was 98.3%, the remaining activity at 5 µM [2] was 102% and the remaining activity at 5 µM [3] was 91.2%. It also gave a remaining activity at 5 µM [4] of 77.2%, a remaining activity at 5 µM [5] of 75.9% and a remaining activity at 5 µM [6] of 87.8%. It also gave a remaining activity at 5 µM [7] of 82.6% and a remaining activity at 5 µM [8] of 89.4%.
`O=C(Nc1cnn(-c2csc(C(=O)NC3COC3)c2)c1)Nc1ccccc1Cl` [Compound 17, 4-(4-(3-(2-chlorophenyl)ureido)-1H-pyrazol-1-yl)-N-(oxetan-3-yl)thiophene-2-carboxamide] showed a remaining activity at 5 µM [1] of 98%, a remaining activity at 5 µM [2] of 96.3% and a remaining activity at 5 µM [3] of 102%. For the same molecule, the remaining activity at 5 µM [4] was 110%, the remaining activity at 5 µM [5] was 96% and the remaining activity at 5 µM [6] was 99.3%. It also gave a remaining activity at 5 µM [7] of 113% and a remaining activity at 5 µM [8] of 98.4%.
